Source: US20030186943A1, “Substituted gamma-phenyl-delta-lactams and uses related thereto” (Inflazyme Pharmaceuticals Ltd., priority 1998, published 2003)
Values joined by “and” are separate entries in the source; they are usually repeats but may differ in a detail not shown here. Equal values may be shown once.

What was measured:
[1] = system: primary human neutrophils; assay: fMLP-induced human neutrophil chemotaxis; assay type: cell-based; conditions: for IC50: fMLP-induced chemotaxis, X marks this range, read-out: IC50 RANGE (μM) 10-100
Method: Chemotaxis buffer containing the chemoattractant fMLP (10 μM) was added to each well of a chemotaxis plate and a filter was inserted ensuring contact between the filter and the chemotaxis buffer in the well. A submaximal concentration of chemoattractant was used which had been determined in previous experiments. […] Freshly isolated neutrophils (1×10^6) were incubated with vehicle (0.125% DMSO)±test compound for 1 hr at 37° C. Treatment and control cell suspensions were then gently resuspended and 20 μL of cells was added to the top side of the filter on each well. The plate was incubated for 1.5 hours at 37° C. under 5% CO2. Cells were then removed from the top side of the filter by aspiration and the entire plate was centrifuged. The filter was removed and known concentrations of cells were added to unused wells to prepare a standard curve. XTT (Sigma; Catalogue No. X 4251)/PMS (Sigma; Catalogue No. P 7626) solution prepared in buffer was added to each well and the cells were further incubated 1-2 hours and measured for absorbance at 450 nm. Absorbance values were converted to cell numbers using the standard curve. IC50 values are averages from at least three separate experiments with triplicate determinations.

[2] = system: K562 chronic myelogenous leukemia cells; assay: Anti-proliferative activity in K562 cells (3H-thymidine uptake); assay type: cell-based, human; conditions: for IC50: Homo sapiens, K562, 48 hours, 3H-thymidine, X marks this range, read-out: IC50 range (μM) >50
Method: 90 μL K562 cells (human chronic myelogenous leukemia cells) were seeded into sterile 96-well assay plates at a density of 1×10^5 cells/mL in RPMI 1640 supplemented with 10% FBS/2 mM L-glutamine. Samples to be tested were prepared in a sterile 96-well assay plate at 10×the final concentration desired. All sample dilutions contained equal amounts of DMSO to compensate for the % DMSO in the highest sample concentration used. Nine concentrations of test compound were examined for effects on growth up to a maximal concentration of 100 μM. 10 μL of the samples and controls (DMSO/normal growth control) were added to the aliquoted cells. The cells were incubated at 37° C./5% CO2 for 48 hours. Following 48 hour incubation, 20 μL of 3H-thymidine was added to each well for a final concentration of 1 μCi/mL. The cells were then incubated at 37° C./5% CO2 for 4 to 6 hours. Following 4-6 hour thymidine pulse, plates were wrapped in plastic and frozen in a −20° C. frost-free freezer overnight. Cells were harvested and ^3H-thymidine counts determined. In order to distinguish between cytotoxicity and cytostatic activity, growth curves were prepared where the average CPM value of the seeding density of cells was plotted on the same curve as the average CPM value for the maximum proliferation attained after 48 hours (DMSO growth control cells). The cells were diluted 1:2 for a concentration range of 7.8×10^3 cells/mL to 2×10^6 cells/mL. 90 μL of each cell dilution was seeded in sterile 96-well assay plated and allowed to equilibrate for approximately 4 hours at 37° C./5% CO2 prior to ^3H-thymidine pulse. The data in Table 15 was obtained as described above, and more specifically, K562 cells were seeded into 96-well plates at 1×10^5 cells/mL in RPMI 1640 supplemented with 10% FBS/2 mM L-glutamine. Various concentrations of test compound or vehicle (DMSO) was added and the cells were incubated at 37° C./5 CO2 for 48 hours. The cells were then pulsed at 37° C./5% CO2 for 4 to 6 hours with 1 μCi/mL ^3H-thymidine. Radioactivity incorporated into DNA was determined after harvesting onto glass fiber filters and scintillation counting.

[3] = system: mixed-lymphocyte-reaction; assay: One way and two way mixed-lymphocyte-reaction (MLR); assay type: cell-based; conditions: read-out: inhibition of proliferation in MLR
naive CD4+ T-cells = assay: Naive CD4+ T-cell proliferation (AND-TCR transgenic); assay type: cell-based, mouse
Method: AND-TCR transgenic mice (Kaye J. et al., Nature 341:746-749, 1989) were used to provide a source of naive-antigen specific CD4+T cells. The AND-T cell antigen receptor recognizes a peptide derived from pigeon cytochrome C (pcc) in the context of the I-E^k class II MHC molecule.
To examine the role of a test compound in naive CD4 T cell activation and proliferation, 1×10^5 AND-lymph node T cells were cultured with 1×10^6 irradiated B10.BR spleen cells in the presence of varying concentrations of pcc peptide (0-10 μM) in 96 well plates. Proliferation was assessed by ^3H thymidine incorporation. All assay conditions were conducted in triplicate. Cell surface activation phenotype of T cells was assessed by flow cytometric analysis.

Th1 cells = assay: Proliferation of differentiated Th1 CD4+ T cells; assay type: cell-based, mouse; conditions: CD4+ T cells already differentiated into Th1 phenotype
Method: The differentiation of naive CD4 T cells toward Th1 and Th2 lineages was performed as follows: 1×10^5 AND-lymph node T cells were cultured with […] B10.BR irradiated spleen cells in 2 ml of culture media with the following supplements: for Th1 cell differentiation, 100 U/mL IFNγ, 25U/mL IL2 and 10 ug/mL anti-IL4; for Th2 cell differentiation, 150 U/mL IL4, 25 U/mL IL2 and 10 ug/mL anti-IFNγ. After 3-4 days the wells were split 1:4 with the same additions. After 7 days the cells were harvested and washed 3 times to remove cytokines in the supernatents. 1×10^5 cultured cells were restimulated with 5×10^5 irradiated B10BR spleen cells +5 μM pcc peptide in 250 μl culture media without any added cytokines. The supernatents were harvested after 40 hrs and assessed for IL2, IL4 and IFNγ by ELISA. Test compounds were added throughout the differentiation of the culture.
Cultured Th1 and Th2 cells generated in the absence of test compounds were tested for proliferation and cytokine activity as described above during antigen stimulation in the presence of compound.

[4] = system: TNBS-induced colitis in the rat; assay: TNBS-induced colitis model of inflammatory bowel disease in the rat; conditions: for MPO Activity (U/mg): colonic tissue;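 for all read-outs here: rat colitis induced by intracolonic TNBS in 50% ethanol, distal colon assessed at sacrifice on day 7, with saline-instilled vehicle-treated rats as controls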
Method: Colitis was induced by intracolonic instillation of the hapten TNBS (60 mg/mL) in 0.5 mL of 50% ethanol. […] An additional group of rats received saline intracolonically in place of TNBS/ethanol and was treated with vehicle at the same times as outlined above. Body weights were recorded at the beginning of the study and at days 2 and 7.
The rats were sacrificed on the 7th day after the induction of colitis and the extent of damage and inflammation was assessed. After the rats were sacrificed, the distal colon was removed and pinned out on a wax platform. The presence or absence of diarrhea was noted, as well as the presence and severity of adhesions between the colon and other organs, and the severity and extent of colonic damage. […] After scoring, a sample of colonic tissue was excised for measurement of myeloperoxidase activity as an index of granulocyte infiltration (see Wallace et al., Gastroenterology 117: in press, 1999; and Morris et al., Gastroenterology 96:795-803, 1989). This tissue sample was 1 cm long (along the axis of the colon) and 5 mm wide and was taken from a region of macroscopically visible damage (or the corresponding region in any rats in which there was no damage). The remainder of the tissue was fixed in neutral buffered formalin and processed by routine methods for subsequent evaluation by light microscopy. In a blinded manner, the sample of colonic tissue from each rat was examined for evidence of mucosal ulceration and inflammation. The percentage of the luminal surface of the section in which ulceration was present was calculated.

[5] = 10 mg/kg intracolonically at 12 h intervals for one week, day 7

SMILES: COc1cc(C[C@@H]2CC(c3ccc(OC)c(OC)c3)COC2=O)ccc1O (mixture of isomers) [Compound 12]
- IC50 [1]: 10 to 100 µM

SMILES: COc1cc(C[C@@H]2C[C@@H](c3ccc(OC)c(OC)c3)COC2=O)ccc1O [Compound 30]
- IC50 [1]: 10 to 100 µM

SMILES: COc1ccc([C@@H]2CCC(=O)OC2)cc1OC1CCCC1 [Compound 41]
- IC50 [2]: > 50 µM

SMILES: COc1cc(CC2C[C@@H](c3ccc(OC)c(OC4CCCC4)c3)COC2=O)ccc1O (stereo partly shown) [Compound 43]
- inhibition at 20 µM [3]: ≥ 50%
- inhibition at 5 µM (naive CD4+ T-cells; Mus musculus, T-cell, @5 μM): > 70%
- inhibition of Th1 cells (Th1 cells): approx. 30%
- colonic damage score (% of vehicle) ([4]; 10 mg/kg): 49 % of vehicle
- histological score (% of control) ([4]; 10 mg/kg): 52 % of control
- incidence of adhesions (% of vehicle) ([4]; 10 mg/kg): 36 % of vehicle
- thickness of the bowel wall (% of vehicle) ([4]; 10 mg/kg): 30 % of vehicle
- total reduction in the global colitis score compared to vehicle treated animals ([4]; 10 mg/kg): 51%
- Mortality ([4]; 10 mg/kg intracolonically at 12 h intervals for one week): 0/8
- Adhesion (Incidence) [4, 5]: (3/8)^ζ
- Adhesion Score [4, 5]: 0.5 ± 0.3
- Bowel Thickness (mm) [4, 5]: 1.67 ± 0.28 mm
- Damage Score [4, 5]: 3.4 ± 0.9
- Global Colitis Score [4, 5]: 5.86 ± 1.35
- MPO Activity (U/mg) [4, 5]: 65.1 ± 8.6 U/mg
- MPO Activity (U/mg) ([4]; 10 mg/kg intracolonically at 12 h intervals for one week, day 7, 10 mg/kg): not prevented
- Diarrhea ([4]; incidence, 10 mg/kg intracolonically at 12 h intervals for one week, day 7, 10 mg/kg): not statistically significant and 3/8
- Histology Score ([4]; percentage of luminal surface ulcerated, 10 mg/kg intracolonically for one week, day 7): 50.6 ± 10.5

SMILES: COc1ccc(C2CNC(=O)C2)cc1OC1CCCC1 (stereo not shown) [Rolipram, reference compound]
- inhibition at 12.5 µM ([1]; at 12.5 μM, positive control): 85%
- effect on proliferative ability / cell cycle of K-562 cells [2]: failed to have any effect
- IC50 [2]: > 50 µM
- inhibition of T-cell populations (naive CD4+ T-cells; all T-cell populations, control phosphodiesterase IV inhibitor): uniformly inhibitory
